Test results published in patent publication US20210101928A1 (Sage Therapeutics, Inc., priority 2017, published 2021).

These compounds were tested against GABAA receptor ([35S]-TBPS binding, rat brain cortical membranes) (assay: Steroid inhibition of [35S]-TBPS binding). Details: Table I-1, 3 nM [35S]-TBPS, in the presence of 5 mM GABA, read-out: TBPS binding IC50.
Procedure: [^35S]-t-Butylbicyclophosphorothionate (TBPS) binding assays using rat brain cortical membranes in the presence of 5 mM GABA has been described (Gee et al, J. Pharmacol. Exp. Ther. 1987, 241, 346-353; Hawkinson et al, Mol. Pharmacol. 1994, 46, 977-985; Lewin, A. H et al., Mol. Pharmacol. 1989, 35, 189-194).
Briefly, cortices are rapidly removed following decapitation of carbon dioxide-anesthetized Sprague-Dawley rats (200-250 g). The cortices are homogenized in 10 volumes of ice-cold 0.32 M sucrose using a glass/teflon homogenizer and centrifuged at 1500×g for 10 min at 4° C. The resultant supernatants are centrifuged at 10,000×g for 20 min at 4° C. to obtain the P2 pellets. The P2 pellets are resuspended in 200 mM NaCl/50 mM Na—K phosphate pH 7.4 buffer and centrifuged at 10,000×g for 10 min at 4° C. This washing procedure is repeated twice and the pellets are resuspended in 10 volumes of buffer. Aliquots ([…]) of the membrane suspensions are incubated with 3 nM [^35S]-TBPS and […] aliquots of test drug dissolved in dimethyl sulfoxide (DMSO) (final 0.5%) in the presence of 5 mM GABA. The incubation is brought to a final volume of 1.0 mL with buffer. Nonspecific binding is determined in the presence of […] and ranged from 15 to 25%. Following a 90 min incubation at room temp, the assays are terminated by filtration through glass fiber filters (Schleicher and Schuell No. 32) using a cell harvester (Brandel) and rinsed three times with ice-cold buffer. Filter bound radioactivity is measured by liquid scintillation spectrometry. Non-linear curve fitting of the overall data for each drug averaged for each concentration is done using Prism (GraphPad). […] The concentration of test compound producing 50% inhibition (IC50) of specific binding and the maximal extent of inhibition (Imax) are determined for the individual experiments with the same model used for the overall data and then the means±SEM.s of the individual experiments are calculated.
Various compounds are or can be screened to determine their potential as modulators of [^35S]-TBPS binding in vitro. These assays are or can be performed in accordance with the above.
`CC(=O)[C@H]1CC[C@H]2[C@@H]3CC[C@]4(C)C[C@@](C)(O)CC[C@]4(C)[C@H]3CC[C@]12C` [I-A5, 1-((3S,5R,8S,9S,10R,13S,14S,17S)-3-hydroxy-3,5,10,13-tetramethylhexadecahydro-1H-cyclopenta[a]phenanthren-17-yl)ethan-1-one] showed an IC50 of 1000 to 10000 nM.
For `Cc1nnnn1CC(=O)[C@H]1CC[C@H]2[C@@H]3CC[C@]4(C)C[C@](C)(O)CC[C@]4(C)[C@H]3CC[C@]12C` [I-A8, 1-((3R,5R,8S,9S,10R,13S,14S,17S)-3-hydroxy-3,5,10,13-tetramethylhexadecahydro-1H-cyclopenta[a]phenanthren-17-yl)-2-(5-methyl-1H-tetrazol-1-yl)ethan-1-one], the IC50 was 100 to 1000 nM.

Same assay, conditions: Table II-2, 3 nM [35S]-TBPS, in the presence of 5 mM GABA, read-out: TBPS IC50
`CCOC[C@@]1(O)CC[C@@]2(CC)[C@H](CC[C@H]3[C@@H]4CC[C@H](C(=O)N5CCCC[C@@H]5C)[C@@]4(C)CC[C@@H]32)C1` [II-44, ((3R,5R,85,95,10S,13S,14S,17S)-3-(ethoxymethyl)-10-ethyl-3-hydroxy-13-methylhexadecahydro-1H-cyclopenta[a]phenanthren-17-yl)((S)-2-methylpiperidin-1-yl)methanone] gave an IC50 of 100 to 1000 nM.
In the case of `CC[C@]12CC[C@@](C)(O)C[C@H]1CC[C@H]1[C@@H]3CC[C@H](C(=O)Cn4nnc5ccc(OC)cc54)[C@@]3(C)CC[C@@H]12` (single isomer, unassigned) [II-M2], the IC50 is reported as under 10 nM.
For `CC[C@]12CC[C@](O)(COC)C[C@@H]1CC[C@H]1[C@@H]3CC[C@H](C(=O)Nc4ccc(C#N)cc4C)[C@@]3(C)CC[C@@H]12` [II-E6, (3R,5S,8S,9S,10S,13S,14S,17S)-N-(4-cyano-2-methylphenyl)-10-ethyl-3-hydroxy-3-(methoxymethyl)-13-methylhexadecahydro-1H-cyclopenta[a]phenanthrene-17-carboxamide], the IC50 was under 10 nM.
Work on `CCOC[C@@]1(O)CC[C@@]2(CC)[C@H](CC[C@H]3[C@@H]4CC[C@H](C(=O)N5CCCC[C@@H]5c5ccc(F)cc5)[C@@]4(C)CC[C@@H]32)C1` [II-50, ((3R,5R,8S,9S,10S,13S,14S,17S)-3-(ethoxymethyl)-10-ethyl-3-hydroxy-13-methylhexadecahydro-1H-cyclopenta[a]phenanthren-17-yl)((R)-2-(4-fluorophenyl)piperidin-1-yl)methanone] yielded an IC50 of 100 to 1000 nM.
Compound `C=C[C@]12CC[C@@](C)(O)C[C@@H]1CC[C@H]1[C@@H]3CC[C@H](C(C)=O)[C@@]3(C)CC[C@@H]12` [II-A4, 1((3R,5S,8S,9S,10R,13S,14S,17S)-3-hydroxy-3,13-dimethyl-10-vinylhexadecahydro-1H-cyclopenta[a]phenanthren-17-yl)ethan-1-one] has an IC50 of 10 to 100 nM.
Compound `CCOC[C@@]1(O)CC[C@@]2(CC)[C@H](CC[C@H]3[C@@H]4CC[C@H](C(=O)Cn5nccn5)[C@@]4(C)CC[C@@H]32)C1` [II-75, 1-((3R,5R,8S,9S,10S,13S,14S,17S)-3-(ethoxymethyl)-10-ethyl-3-hydroxy-13-methylhexadecahydro-1H-cyclopenta[a]phenanthren-17-yl)-2-(2H-1,2,3-triazole-2-yl)ethan-1-one] has an IC50 of 10 to 100 nM.
`CC[C@]12CC[C@@](C)(O)C[C@@H]1CC[C@H]1[C@@H]3CC[C@H](C(=O)Cn4nccn4)[C@@]3(C)CC[C@@H]12` [II-A8a] gave an IC50 of 10 to 100 nM.
With `CCOC[C@@]1(O)CC[C@@]2(CC)[C@H](CC[C@H]3[C@@H]4CC[C@H](C(C)=O)[C@@]4(C)CC[C@@H]32)C1` [II-C4, 1-((3R,5R,8S,9S,10S,13S,14S,17S)-3-(ethoxymethyl)-10-ethyl-3-hydroxy-13-methylhexadecahydro-1H-cyclopenta[a]phenanthren-17-yl)ethan-1-one] the IC50 was 10 to 100 nM.
Compound `CCOC[C@@]1(O)CC[C@@]2(CC)[C@H](CC[C@H]3[C@@H]4CC[C@H](C(=O)Nc5ccccc5C)[C@@]4(C)CC[C@@H]32)C1` [II-47, (3R,5R,8S,9S,10S,13S,14S,17S)-3-(ethoxymethyl)-10-ethyl-3-hydroxy-13-methyl-N-(o-tolyl)hexadecahydro-1H-cyclopenta[a]phenanthrene-17-carboxamide] has an IC50 of under 10 nM.
Work on `CCOC[C@@]1(O)CC[C@@]2(CC)[C@H](CC[C@H]3[C@@H]4CC[C@H](C(N)=O)[C@@]4(C)CC[C@@H]32)C1` [II-48, (3R,5R,8S,9S,10S,13S,14S,17S)-3-(ethoxymethyl)-10-ethyl-3-hydroxy-13-methylhexadecahydro-1H-cyclopenta[a]phenanthrene-17-carboxamide] yielded an IC50 of 100 to 1000 nM.
`CC[C@]12CC[C@@](C)(O)C[C@@H]1CC[C@H]1[C@@H]3CC[C@H](C(=O)CN4CCOCC4)[C@@]3(C)CC[C@@H]12` [II-A9, 1-((3R,5S,8S,9S,10S,13S,14S,17S)-10-ethyl-3-hydroxy-3,13-dimethylhexadecahydro-1H-cyclopenta[a]phenanthren-17-yl)-2-morpholinoethan-1-one] showed an IC50 of 10 to 100 nM.
Work on `CC[C@]12CC[C@@](C)(O)C[C@H]1CC[C@H]1[C@@H]3CC[C@H](C(=O)c4ccccc4C)[C@@]3(C)CC[C@@H]12` [II-G5, ((3R,5R,8S,9S,10S,13S,14S,17S)-10-ethyl-3-hydroxy-3,13-dimethylhexadecahydro-1H-cyclopenta [a]phenanthren-17-yl)(o-tolyl)methanone] yielded an IC50 of 10 to 100 nM.
`CC[C@]12CC[C@@](C)(O)C[C@H]1CC[C@H]1[C@@H]3CC[C@H](C(=O)N4CCCC[C@@H]4C)[C@@]3(C)CC[C@@H]12` [II-20, ((3R,5R,8S,9S,10S,13S,14S,17S)-10-ethyl-3-hydroxy-3,13-dimethylhexadecahydro-1H-cyclopenta[a]phenanthren-ren-17-yl)((S)-2-methylpiperidin-1-yl)methanone] gave an IC50 of 10 to 100 nM.
In the case of `CC[C@]12CC[C@@](C)(O)C[C@H]1CC[C@H]1[C@@H]3CC[C@H](C(N)=O)[C@@]3(C)CC[C@@H]12` [II-22, (3R,5R,8S,9S,10S,13S,14S,17S)-10-ethyl-3-hydroxy-3,13-dimethylhexadecahydro-1H-cyclopenta[a]phenanthrene-17-carboxamide], the IC50 is reported as 100 to 1000 nM.
`CC[C@]12CC[C@@](C)(O)C[C@@H]1CC[C@H]1[C@@H]3CC[C@H](C(=O)Cn4ccnn4)[C@@]3(C)CC[C@@H]12` [II-A8] gave an IC50 of under 10 nM.
Work on `CC[C@H]1CCCCN1C(=O)[C@H]1CC[C@H]2[C@@H]3CC[C@@H]4C[C@](C)(O)CC[C@]4(CC)[C@H]3CC[C@]12C` [II-21, ((3R,5R,8S,9S,10S,13S,14S,17S)-10-ethyl-3-hydroxy-3,13-dimethylhexadecahydro-cyclopenta[a]phenanthren-17-yl)((S)-2-ethylpiperidin-1-yl)methanone] yielded an IC50 of 10 to 100 nM.

Same assay, conditions: Table III-1 (biological data), 3 nM [35S]-TBPS, in the presence of 5 mM GABA, read-out: TBPS IC50
In the case of `CC[C@]12CC[C@H]3[C@@H](CC[C@@H]4C[C@@](O)(COC)CC[C@@H]43)[C@@H]1CC[C@@H]2C(C)=O` [III-B15, 1-((3R,5R,8R,9R,10S,13S,14S,17S)-13-ethyl-3-hydroxy-3-(methoxymethyl)hexadecahydro-1H-cyclopenta[a]phenanthren-17-yl)ethan-1-one], the IC50 is reported as 10 to 100 nM.
